One test deals with T1, PDGF-Ra (Homo sapiens, UniProt P16234).
T1 construct: host or cells: G-292 human osteosarcoma cells
The test is described as follows: Inhibitory activity against PDGF-Ra phosphorylation by PDGF-AA stimulation using G292. The class given is cell-based. The following applies: Pharmacological Test Example 1; > means inhibition at indicated concentration not more than 50%, < and << not less than 50%; read-out: PDGF (E) IC50. The method, boiled down: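 Phosphorylated PDGF-Ra was measured colorimetrically (450 nm) after tyrosine-phosphorylated proteins from G-292 lysates were bound to PY-20-coated wells and detected with anti-PDGF-Ra antibody. Compound preincubation lasted 1 hr, followed by 50 ng/ml PDGF-AA for 5 min.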

The next test addresses T2, c-kit (Homo sapiens, UniProt P10721).
T2 construct: MO7e (human megakaryocytic leukemia cell line) which had been arrested for 20 hr; endogenous in cells; host or cells: MO7e human megakaryocytic leukemia cell line
The test is described as follows: Inhibitory activity against c-kit autophosphorylation (MO7e cells, h-SCF). The class given is cell-based. As to conditions: MO7e cells, h-SCF 50 ng/ml; read-out: c-kit IC50. The procedure, abridged: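 First, human megakaryocytic leukemia MO7e cells arrested 20 hr receive compound for one hour. Second, SCF stimulation (50 ng/ml) runs 5 min, after which cells are solubilized. Third, tyrosine-phosphorylated c-kit in the lysate is quantified by sandwich ELISA with absorbance at 450 nm.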

These results are taken from patent US7135466B2 (Kirin Beer Kabushiki Kaisha, priority 1999, dated 2006).

T1 sequence (P16234 24-1089): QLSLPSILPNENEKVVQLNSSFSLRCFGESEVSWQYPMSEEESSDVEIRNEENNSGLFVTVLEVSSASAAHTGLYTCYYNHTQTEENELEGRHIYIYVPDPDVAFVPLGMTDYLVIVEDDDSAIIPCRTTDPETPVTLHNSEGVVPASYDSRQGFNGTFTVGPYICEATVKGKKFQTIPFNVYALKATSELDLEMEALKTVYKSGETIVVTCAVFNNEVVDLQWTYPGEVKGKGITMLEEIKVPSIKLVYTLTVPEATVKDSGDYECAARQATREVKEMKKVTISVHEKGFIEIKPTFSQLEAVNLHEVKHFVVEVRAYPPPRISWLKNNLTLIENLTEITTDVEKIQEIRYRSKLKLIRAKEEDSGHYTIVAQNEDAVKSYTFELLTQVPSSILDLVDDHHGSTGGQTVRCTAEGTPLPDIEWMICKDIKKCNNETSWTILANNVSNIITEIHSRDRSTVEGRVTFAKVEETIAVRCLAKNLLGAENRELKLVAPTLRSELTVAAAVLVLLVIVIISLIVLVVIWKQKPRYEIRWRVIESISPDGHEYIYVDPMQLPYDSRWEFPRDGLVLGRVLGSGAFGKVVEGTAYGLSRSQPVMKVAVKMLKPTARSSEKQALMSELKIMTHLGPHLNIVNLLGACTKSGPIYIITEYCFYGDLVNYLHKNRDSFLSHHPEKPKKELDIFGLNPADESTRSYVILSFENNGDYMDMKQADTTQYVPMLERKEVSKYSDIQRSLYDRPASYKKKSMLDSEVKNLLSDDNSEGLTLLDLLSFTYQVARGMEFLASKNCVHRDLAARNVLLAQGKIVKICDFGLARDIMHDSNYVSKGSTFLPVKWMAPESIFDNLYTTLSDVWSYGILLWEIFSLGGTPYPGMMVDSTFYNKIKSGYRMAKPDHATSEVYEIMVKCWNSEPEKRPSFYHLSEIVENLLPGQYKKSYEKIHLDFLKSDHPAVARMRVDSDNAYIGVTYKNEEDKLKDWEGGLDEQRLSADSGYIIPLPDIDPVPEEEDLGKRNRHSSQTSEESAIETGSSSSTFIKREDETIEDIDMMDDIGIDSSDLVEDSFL
T2 sequence (P10721 26-976): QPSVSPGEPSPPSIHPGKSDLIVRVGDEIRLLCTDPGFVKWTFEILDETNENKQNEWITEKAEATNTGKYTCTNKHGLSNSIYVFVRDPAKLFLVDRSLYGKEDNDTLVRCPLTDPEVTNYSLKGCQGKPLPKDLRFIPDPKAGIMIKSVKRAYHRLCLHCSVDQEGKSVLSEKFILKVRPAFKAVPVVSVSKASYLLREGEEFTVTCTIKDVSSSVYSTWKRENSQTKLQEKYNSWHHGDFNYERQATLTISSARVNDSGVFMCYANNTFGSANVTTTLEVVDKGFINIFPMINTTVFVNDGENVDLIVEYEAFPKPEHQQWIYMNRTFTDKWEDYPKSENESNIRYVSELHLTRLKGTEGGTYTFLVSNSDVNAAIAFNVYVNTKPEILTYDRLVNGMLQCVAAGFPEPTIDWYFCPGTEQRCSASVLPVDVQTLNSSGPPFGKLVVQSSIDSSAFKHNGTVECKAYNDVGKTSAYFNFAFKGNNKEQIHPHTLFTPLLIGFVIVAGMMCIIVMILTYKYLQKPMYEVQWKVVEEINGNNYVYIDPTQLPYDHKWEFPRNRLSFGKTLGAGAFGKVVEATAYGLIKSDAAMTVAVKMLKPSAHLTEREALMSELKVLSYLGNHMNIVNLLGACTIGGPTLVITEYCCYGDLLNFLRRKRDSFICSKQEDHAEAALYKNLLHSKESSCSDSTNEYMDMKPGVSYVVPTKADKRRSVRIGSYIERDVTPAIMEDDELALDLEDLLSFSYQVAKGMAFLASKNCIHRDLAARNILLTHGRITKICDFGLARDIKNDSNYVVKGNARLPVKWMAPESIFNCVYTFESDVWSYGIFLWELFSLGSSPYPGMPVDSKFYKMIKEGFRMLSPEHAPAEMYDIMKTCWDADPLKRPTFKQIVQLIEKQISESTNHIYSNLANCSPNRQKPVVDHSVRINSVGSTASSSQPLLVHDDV

`COc1cc2ncnc(Oc3ccc(NC(=O)OCCCSc4cc(C)ccc4C)cc3)c2cc1OC` [Example 172, 3-[(2,5-Dimethylphenyl)sulfanyl]-propyl N-{4-[(6,7-dimethoxy-4-quinazolinyl)oxy]phenyl}carbamate]: the half-maximal inhibitory concentration (IC50) on PDGF-Ra stood at 17 nM; at c-kit it was 74 nM.

On to `COc1cc2nccc(Oc3ccc(NC(=O)OCCCSc4ccccn4)c(C)c3C)c2cc1OC` [Example 173, 3-(2-Pyridylsulfanyl)propyl N-{4-[(6,7-dimethoxy-4-quinolyl)oxy]-2,3-dimethylphenyl}-carbamate], for which the results for the IC50 at PDGF-Ra and on c-kit were less than 10 nM and 37 nM, respectively.

`COc1cc2nccc(Oc3cc(C)c(NC(=O)OCCCSc4ccccn4)cc3C)c2cc1OC` [Example 174, 3-(2-Pyridylsulfanyl)propyl N-{4-[(6,7-dimethoxy-4-quinolyl)oxy]-2,5-dimethylphenyl}-carbamate]: the IC50 at PDGF-Ra was less than 10 nM; at c-kit, 70 nM.

On to `COc1cc2ncnc(Oc3ccc(NC(=O)OCCCSc4ccccn4)cc3)c2cc1OC` [Example 175, 3-(2-Pyridylsulfanyl)propyl N-{4-[(6,7-dimethoxy-4-quinazolinyl)oxy]phenyl}carbamate], for which the IC50 was less than 10 nM on PDGF-Ra and 45 nM at c-kit.

In the case of `COc1cc2nccc(Oc3ccc(NC(=O)Sc4ccc(Cl)cc4C)cc3)c2cc1OC` [Example 176, 4-Chloro-2-methylphenyl{4-[(6,7-dimethoxy-4-quinolyl)oxy]anilino}methanethioate], the values for the IC50 on PDGF-Ra and at c-kit were 20 nM and less than 30 nM, respectively.

In the case of `COc1cc2nccc(Oc3ccc(NC(=O)Sc4ccc(Cl)cc4C)c(C)c3C)c2cc1OC` [Example 177, 4-Chloro-2-methylphenyl{4-[(6,7-dimethoxy-4-quinolyl)oxy]-2,3-dimethylanilino}methanethioate], the IC50 at PDGF-Ra was 19 nM; at c-kit, less than 30 nM.

Turning to `COc1cc2ncnc(Oc3ccc(NC(=O)OC(C)c4cccc(OC(F)(F)F)c4)cc3)c2cc1OC` (centres unmarked) [Example 183, 1-[3-(Trifluoromethoxy)phenyl]ethyl N-{4-[(6,7-dimethoxy-4-quinazolinyl)oxy]phenyl}carbamate], the IC50 was 35 nM at PDGF-Ra and 706 nM on c-kit.

In the case of `CCCC(OC(=O)Nc1ccc(Oc2ccnc3cc(OC)c(OC)cc23)cc1)c1ccccc1` (centres unmarked) [Example 184, 1-Phenylbutyl N{4-[(6,7-dimethoxy-4-quinolyl)oxy]phenyl}carbamate], the results for the IC50 at PDGF-Ra and on c-kit were 38 nM and 369 nM, respectively.

For the compound `CCCC(OC(=O)Nc1ccc(Oc2ncnc3cc(OC)c(OC)cc23)cc1)c1ccccc1` (centres unmarked) [Example 187, 1-Phenylbutyl N-{4-[(6,7-dimethoxy-4-quinazolinyl)oxy]phenyl}carbamate], the IC50 on PDGF-Ra is less than 10 nM; at c-kit, 561 nM.

Regarding `COc1cc2ncnc(Oc3ccc(NC(=O)OCCN(C)C)cc3)c2cc1OC` [Example 191, 2-(Dimethylamino)ethyl N-{4-[(6,7-dimethoxy-4-quinazolinyl)oxy]phenyl}carbamate], the half-inhibitory concentration (IC50) at PDGF-Ra came to 84 nM; on c-kit it was 503 nM.

Take `COc1cc2nccc(Oc3ccc(NC(=O)OC(C)c4cccc(N(C)C)c4)cc3)c2cc1OC` (centres unmarked) [Example 199, 1-[3-(Dimethylamino)phenyl]ethyl N-{4-[(6,7-dimethoxy-4-quinolyl)oxy]phenyl}carbamate]: the IC50 at PDGF-Ra was 35 nM; at c-kit, 807 nM.

As to `COc1cc2nccc(Oc3ccc(NC(=O)OC(C)c4cccc(N(C)C)c4)c(C)c3C)c2cc1OC` (centres unmarked) [Example 200, 1-[3-(Dimethylamino)phenyl]ethyl N-{4-[(6,7-dimethoxy-4-quinolyl)oxy]-2,3-dimethylphenyl}-carbamate], the IC50 at PDGF-Ra turned out to be 31 nM; at c-kit, 329 nM.

In the case of `COc1cc2ncnc(Oc3ccc(NC(=O)OC(C)c4cccc(N(C)C)c4)cc3)c2cc1OC` (centres unmarked) [Example 202, 1-[3-(Dimethylamino)phenyl]ethyl N-{4-[(6,7-dimethoxy-4-quinazolinyl)oxy]phenyl}carbamate], the IC50 on PDGF-Ra was found to be 10 nM; on c-kit, 610 nM.

Broadly, the IC50 is the concentration at which inhibition is half-maximal.
